Data published in ChEMBL document CHEMBL5506022, “Discovery of Novel Dual Inhibitors Targeting Mutant IDH1 and NAMPT for the Treatment of Glioma with IDH1Mutation” (J Med Chem, 2024).
Calls of active or inactive are those of the source. No cut-off for these calls is given here.

How the values were obtained:
U-87 MG [1] = type: functional, Homo sapiens, U-87MG ATCC; conditions: dose 0.5 µM; time 48 hrs
[2] = AUC in ICR mouse brain at 5 mg/kg, iv measured after 24 hrs by LC-MS/MS analysis; type: ADME, organism-based
U-87MG ATCC [3] = experiment: Effect on intracellular NADP+ level in human U-87 MG cells harboring wildtype IDH1; type: functional, cell-based
U-87MG ATCC [4] = type: functional, cell-based; conditions: Homo sapiens, dose 0.5-2 µM, time 24.0 hrs
[5] = Cmax in Sprague-Dawley rat at 10 mg/kg, po measured after 24 hrs by LC-MS/MS analysis; type: ADME, organism-based; conditions: in vivo
[6] = Permeability of compound by PAMPA-BBB assay; type: ADME; conditions: read-out: permeability
[7] = AUC (0 to t) in Sprague-Dawley rat at 10 mg/kg, po measured after 24 hrs by LC-MS/MS analysis; type: ADME, organism-based; conditions: in vivo
U-87 MG [8] = type: functional, Homo sapiens, U-87MG ATCC; conditions: dose 2 µM; time 48 hrs
U-87 MG [9] = type: functional, U-87MG ATCC; conditions: Homo sapiens, time 48 hrs, read-out: Activity
U-87 MG [10] = type: functional, Homo sapiens, U-87MG ATCC; conditions: dose 2 µM; time 48 hrs; remark: listed apart in the source
[11] = biological target: T1, Nicotinamide phosphoribosyltransferase (Homo sapiens, UniProt P43490); type: cell-based; conditions: U-87 MG, dose 0.5-2 µM, time 48.0 hrs
Target sequence in this assay (P43490 whole entry, looked up): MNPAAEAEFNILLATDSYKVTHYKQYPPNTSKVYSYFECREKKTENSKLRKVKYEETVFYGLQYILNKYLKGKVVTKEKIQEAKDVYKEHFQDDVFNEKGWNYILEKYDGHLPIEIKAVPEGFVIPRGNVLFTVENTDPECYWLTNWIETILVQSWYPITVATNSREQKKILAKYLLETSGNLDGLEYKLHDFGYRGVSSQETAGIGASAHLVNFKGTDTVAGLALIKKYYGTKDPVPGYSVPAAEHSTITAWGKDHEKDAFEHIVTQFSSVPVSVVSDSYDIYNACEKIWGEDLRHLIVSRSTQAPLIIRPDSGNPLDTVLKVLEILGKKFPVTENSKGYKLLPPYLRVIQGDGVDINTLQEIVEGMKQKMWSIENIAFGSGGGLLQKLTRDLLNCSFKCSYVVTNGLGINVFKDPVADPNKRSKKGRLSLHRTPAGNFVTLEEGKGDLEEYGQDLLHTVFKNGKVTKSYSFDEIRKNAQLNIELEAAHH

[12] = Ratio of drug concentration in ICR mouse brain to plasma at 5 mg/kg, iv measured after 24 hrs by LC-MS/MS analysis; type: ADME, organism-based; conditions: read-out: BPR
[13] = AUC (0 to infinity) in Sprague-Dawley rat at 10 mg/kg, po measured after 24 hrs by LC-MS/MS analysis; type: ADME, organism-based; conditions: in vivo
[14] = Half-life in Sprague-Dawley rat at 1 mg/kg, iv measured after 24 hrs by LC-MS/MS analysis; type: ADME, organism-based; conditions: in vivo
[15] = Clearance in Sprague-Dawley rat at 1 mg/kg, iv measured after 24 hrs by LC-MS/MS analysis; type: ADME, organism-based; conditions: in vivo
[16] = biological target: Isocitrate dehydrogenase [NADP], mitochondrial (Homo sapiens, UniProt P48735, R172K); experiment: Inhibition of IDH2 R172K mutant (unknown origin) using alpha-ketoglutarate as substrate incubated in presence of NADPH by Envision multimode plate reader analysis
Isocitrate dehydrogenase [NADP], mitochondrial (Homo sapiens, UniProt P48735, R172K), sequence (P48735 40-452 R172K limits assumed): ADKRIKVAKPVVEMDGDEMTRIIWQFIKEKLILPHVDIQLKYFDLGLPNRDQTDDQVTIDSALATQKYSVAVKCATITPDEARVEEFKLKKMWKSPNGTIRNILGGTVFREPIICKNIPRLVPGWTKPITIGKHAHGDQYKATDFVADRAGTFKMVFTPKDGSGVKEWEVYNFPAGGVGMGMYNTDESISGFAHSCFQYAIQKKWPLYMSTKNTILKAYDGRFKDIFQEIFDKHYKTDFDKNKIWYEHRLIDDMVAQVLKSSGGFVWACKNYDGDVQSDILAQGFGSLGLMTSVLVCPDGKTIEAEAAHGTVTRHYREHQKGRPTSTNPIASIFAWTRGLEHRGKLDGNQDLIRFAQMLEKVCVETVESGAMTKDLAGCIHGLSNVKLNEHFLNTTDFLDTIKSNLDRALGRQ

U-87 MG [17] = experiment: Antiproliferative activity against human U-87 MG cells harboring wildtype IDH1 assessed as inhibition of cell growth incubated for 72 hrs by CCK8 assay; type: functional, cell-based, U-87MG ATCC
U-87 MG [18] = type: functional, organism-based; conditions: Homo sapiens; U-87MG ATCC; dose 10-40 mg/kg, route iv, time 35.0 day
[19] = Tmax in Sprague-Dawley rat at 1 mg/kg, iv measured after 24 hrs by LC-MS/MS analysis; type: ADME, organism-based; conditions: in vivo
U-87 MG [20] = type: functional, Homo sapiens, U-87MG ATCC; conditions: dose 2 µM; time 48 hrs; remark: listed apart in the source
U-87MG ATCC [21] = type: functional, cell-based; conditions: Homo sapiens, dose 0.5-2 µM, time 24.0 hrs; remark: listed apart in the source
U-87 MG [22] = type: functional, Homo sapiens, U-87MG ATCC; conditions: dose 40 mg/kg; route iv; time 35 day
U-87 MG [23] = type: functional, U-87MG ATCC; conditions: Homo sapiens, time 48 hrs, read-out: Activity; remark: listed apart in the source
[24] = AUC in ICR mouse plasma at 5 mg/kg, iv measured after 24 hrs by LC-MS/MS analysis; type: ADME, organism-based
U-87MG ATCC [25] = type: functional, cell-based; conditions: Homo sapiens, dose 0.5-2 µM, time 48.0 hrs
[26] = AUC (0 to t) in Sprague-Dawley rat at 1 mg/kg, iv measured after 24 hrs by LC-MS/MS analysis; type: ADME, organism-based; conditions: in vivo
U-87 MG [27] = type: functional, cell-based, U-87MG ATCC; conditions: Homo sapiens, 24 h
U-87 MG [28] = type: functional, Homo sapiens, U-87MG ATCC; conditions: dose 0.5 µM; time 48 hrs; remark: listed apart in the source
U-87MG ATCC [29] = type: functional, cell-based; conditions: Homo sapiens, dose 0.5-2 µM, time 24.0 hrs; remark: listed apart in the source
U-87 MG [30] = experiment: cells; conditions: Homo sapiens, 48 h, read-out: Activity
[31] = biological target: T1, Nicotinamide phosphoribosyltransferase; type: cell-based; conditions: U-87 MG, dose 0.5 µM, time 6.0 hrs
Target sequence in this assay (P43490 whole entry, looked up): as the sequence (P43490 whole entry, looked up) above

[32] = biological target: Isocitrate dehydrogenase [NADP], mitochondrial (Homo sapiens, UniProt P48735, R140Q); experiment: Inhibition of IDH2 R140Q mutant (unknown origin) using alpha-ketoglutarate as substrate incubated in presence of NADPH by Envision multimode plate reader analysis
Isocitrate dehydrogenase [NADP], mitochondrial (Homo sapiens, UniProt P48735, R140Q), sequence (P48735 40-452 R140Q limits assumed): as the sequence (P48735 40-452 R172K limits assumed) above, with R101Q, K133R counted along it

U-87MG ATCC [33] = type: functional, cell-based; conditions: Homo sapiens, dose 0.5-2 µM, time 24.0 hrs; remark: listed apart in the source
[34] = biological target: Voltage-gated inwardly rectifying potassium channel KCNH2 (Homo sapiens, UniProt Q12809); experiment: Inhibition of human ERG in CHO cells incubated for 2.5 mins by Qpatch electrogram analysis; type: toxicity, cell-based
Voltage-gated inwardly rectifying potassium channel KCNH2, sequence (Q12809 whole entry): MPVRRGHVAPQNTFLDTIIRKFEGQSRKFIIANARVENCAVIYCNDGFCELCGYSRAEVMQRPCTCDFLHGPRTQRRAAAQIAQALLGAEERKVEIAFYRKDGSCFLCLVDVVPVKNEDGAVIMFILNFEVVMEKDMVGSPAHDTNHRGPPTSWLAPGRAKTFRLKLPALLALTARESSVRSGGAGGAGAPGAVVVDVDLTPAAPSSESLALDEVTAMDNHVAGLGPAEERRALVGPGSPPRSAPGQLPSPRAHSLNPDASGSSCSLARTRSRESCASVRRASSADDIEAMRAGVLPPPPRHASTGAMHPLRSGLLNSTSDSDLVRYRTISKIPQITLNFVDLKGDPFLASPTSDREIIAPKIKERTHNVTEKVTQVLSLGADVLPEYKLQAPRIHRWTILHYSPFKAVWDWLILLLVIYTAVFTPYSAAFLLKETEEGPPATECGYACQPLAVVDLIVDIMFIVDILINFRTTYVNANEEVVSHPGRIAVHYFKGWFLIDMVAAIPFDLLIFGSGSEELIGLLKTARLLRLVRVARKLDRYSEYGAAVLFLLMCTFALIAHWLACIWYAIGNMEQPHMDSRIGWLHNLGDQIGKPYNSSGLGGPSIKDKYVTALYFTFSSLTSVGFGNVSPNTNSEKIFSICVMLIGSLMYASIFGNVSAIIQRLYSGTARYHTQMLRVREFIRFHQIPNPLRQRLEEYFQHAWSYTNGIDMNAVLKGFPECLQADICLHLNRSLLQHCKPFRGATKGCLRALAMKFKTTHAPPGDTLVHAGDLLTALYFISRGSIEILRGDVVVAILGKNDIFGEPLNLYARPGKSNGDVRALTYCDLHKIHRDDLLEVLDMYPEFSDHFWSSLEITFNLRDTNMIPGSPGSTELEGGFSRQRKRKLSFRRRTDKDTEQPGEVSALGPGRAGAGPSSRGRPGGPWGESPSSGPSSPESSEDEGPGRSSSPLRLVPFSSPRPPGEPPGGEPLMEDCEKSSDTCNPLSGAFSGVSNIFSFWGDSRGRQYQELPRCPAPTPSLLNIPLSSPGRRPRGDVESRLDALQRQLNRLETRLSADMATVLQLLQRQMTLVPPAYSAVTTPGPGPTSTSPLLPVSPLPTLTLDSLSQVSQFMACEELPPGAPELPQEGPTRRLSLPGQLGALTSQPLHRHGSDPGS

U-87 MG [35] = type: functional, cell-based; conditions: Homo sapiens; U-87MG ATCC; dose 10-40 mg/kg, route iv, time 35.0 day
U-87 MG [36] = type: functional, cell-based, U-87MG ATCC; conditions: Homo sapiens, 48 h
[37] = Tmax in Sprague-Dawley rat at 10 mg/kg, po measured after 24 hrs by LC-MS/MS analysis; type: ADME, organism-based; conditions: in vivo
U-87 MG [38] = type: functional, Homo sapiens, U-87MG ATCC; conditions: dose 0.5 µM; time 48 hrs; remark: listed apart in the source
U-87 MG [39] = experiment: Antiproliferative activity against human U-87 MG cells harboring wildtype IDH1 assessed as inhibition of cell growth incubated for 24 hrs by CCK8 assay; type: functional, cell-based, U-87MG ATCC
[40] = biological target: Isocitrate dehydrogenase [NADP] cytoplasmic (Homo sapiens, UniProt O75874, R132C); experiment: Inhibition of recombinant IDH1 R132C mutant (unknown origin) using alpha-ketoglutarate as substrate incubated for 60 mins in presence of NADPH by fluorescence microplate reader
Isocitrate dehydrogenase [NADP] cytoplasmic (Homo sapiens, UniProt O75874, R132C), sequence (O75874 2-414 R132C limits assumed): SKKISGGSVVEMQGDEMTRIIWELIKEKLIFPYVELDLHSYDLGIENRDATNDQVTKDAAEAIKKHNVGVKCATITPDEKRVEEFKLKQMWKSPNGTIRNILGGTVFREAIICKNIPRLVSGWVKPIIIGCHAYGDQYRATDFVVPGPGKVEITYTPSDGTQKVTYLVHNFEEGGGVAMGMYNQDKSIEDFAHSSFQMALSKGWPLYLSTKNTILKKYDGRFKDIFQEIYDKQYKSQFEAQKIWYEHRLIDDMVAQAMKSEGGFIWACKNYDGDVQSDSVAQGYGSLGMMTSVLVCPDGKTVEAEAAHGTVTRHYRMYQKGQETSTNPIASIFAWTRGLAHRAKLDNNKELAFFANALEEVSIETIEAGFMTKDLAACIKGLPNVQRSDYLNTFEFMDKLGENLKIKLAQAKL

[41] = Half-life in Sprague-Dawley rat at 10 mg/kg, po measured after 24 hrs by LC-MS/MS analysis; type: ADME, organism-based; conditions: in vivo
[42] = Oral bioavailability in Sprague-Dawley rat at 10 mg/kg measured after 24 hrs by LC-MS/MS analysis; type: ADME, organism-based; conditions: in vivo
U-87 MG [43] = type: functional, organism-based; conditions: Homo sapiens; U-87MG ATCC; dose 10-40 mg/kg, route iv, time 35.0 day; remark: listed apart in the source
U-87 MG [44] = type: functional, Homo sapiens, U-87MG ATCC; conditions: dose 10 mg/kg; route iv; time 35 day
U-87MG ATCC [45] = type: functional, cell-based; conditions: Homo sapiens, dose 0.5-2 µM, time 48.0 hrs; remark: listed apart in the source
U-87 MG [46] = type: functional, cell-based, U-87MG ATCC; conditions: Homo sapiens, 72 h
U-87MG ATCC [47] = type: functional, cell-based; conditions: Homo sapiens, dose 0.5-2 µM, time 24.0 hrs; remark: listed apart in the source
[48] = Cmax in Sprague-Dawley rat at 1 mg/kg, iv measured after 24 hrs by LC-MS/MS analysis; type: ADME, organism-based; conditions: in vivo
[49] = AUC (0 to infinity) in Sprague-Dawley rat at 1 mg/kg, iv measured after 24 hrs by LC-MS/MS analysis; type: ADME, organism-based; conditions: in vivo
U-87 MG [50] = type: functional, Homo sapiens, U-87MG ATCC; conditions: dose 20 mg/kg; route iv; time 35 day
U-87 MG [51] = experiment: Antiproliferative activity against human U-87 MG cells harboring wildtype IDH1 assessed as inhibition of cell growth incubated for 48 hrs by CCK8 assay; type: functional, cell-based, U-87MG ATCC
[52] = Acute toxicity in ICR mouse at 400 mg/kg, po measured for 7 days; type: organism-based; conditions: in vivo, 168 h, time 7 day
[53] = biological target: T2, Isocitrate dehydrogenase [NADP], mitochondrial (Homo sapiens, UniProt P48735); experiment: Inhibition of wildtype IDH2 (unknown origin) […] by Envision multimode plate reader analysis
T2 sequence (P48735 whole entry): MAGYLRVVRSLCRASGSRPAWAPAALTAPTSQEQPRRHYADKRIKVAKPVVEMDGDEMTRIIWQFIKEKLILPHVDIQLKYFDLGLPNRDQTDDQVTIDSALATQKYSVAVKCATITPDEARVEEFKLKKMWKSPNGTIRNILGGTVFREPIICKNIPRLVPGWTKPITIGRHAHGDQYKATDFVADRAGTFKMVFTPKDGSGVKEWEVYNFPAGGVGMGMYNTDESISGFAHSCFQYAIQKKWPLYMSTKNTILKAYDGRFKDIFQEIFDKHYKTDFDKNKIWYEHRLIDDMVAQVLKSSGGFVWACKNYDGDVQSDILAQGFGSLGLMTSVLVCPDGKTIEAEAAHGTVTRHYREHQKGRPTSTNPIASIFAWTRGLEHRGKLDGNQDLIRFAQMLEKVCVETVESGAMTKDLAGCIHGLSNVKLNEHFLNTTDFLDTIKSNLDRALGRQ

[54] = biological target: T1, Nicotinamide phosphoribosyltransferase
Target sequence in this assay (P43490 whole entry): as the sequence (P43490 whole entry, looked up) above

[55] = biological target: Isocitrate dehydrogenase [NADP] cytoplasmic (Homo sapiens, UniProt O75874); experiment: Inhibition of wildtype IDH1 (unknown origin) using DL-isocitrate as substrate incubated for 60 mins in presence of NADP by fluorescence microplate reader
Isocitrate dehydrogenase [NADP] cytoplasmic (Homo sapiens, UniProt O75874), sequence (O75874 whole entry): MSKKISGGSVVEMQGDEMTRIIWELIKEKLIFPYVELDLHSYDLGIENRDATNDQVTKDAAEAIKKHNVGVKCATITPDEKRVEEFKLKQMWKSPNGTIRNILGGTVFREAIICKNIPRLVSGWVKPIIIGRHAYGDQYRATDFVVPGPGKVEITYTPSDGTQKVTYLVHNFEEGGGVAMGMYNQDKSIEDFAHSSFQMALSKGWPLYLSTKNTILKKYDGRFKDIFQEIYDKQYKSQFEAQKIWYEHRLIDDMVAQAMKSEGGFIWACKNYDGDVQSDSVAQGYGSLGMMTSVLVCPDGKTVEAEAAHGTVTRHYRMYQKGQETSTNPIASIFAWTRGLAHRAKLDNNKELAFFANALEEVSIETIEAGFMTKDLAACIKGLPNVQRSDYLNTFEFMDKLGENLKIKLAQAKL

U-87MG ATCC [56] = type: functional, cell-based; conditions: Homo sapiens, dose 0.5-2 µM, time 24.0 hrs; remark: listed apart in the source

## C[C@H](Nc1nccc(N2C(=O)OC[C@@H]2[C@H](C)F)n1)c1ccc(-c2ccc(NC(=O)COc3cccnc3)cc2)cc1
U-87 MG [1]
  Activity: 21.9%
[2]
  AUC at 24 h: 15600 ng·h/mL
U-87MG ATCC [3]
  Activity: inactive
U-87MG ATCC [4]
  Activity: Active
[5]
  Cmax: 867 ng/mL
[6]
  Papp: 4.07 ×10⁻⁶ cm/s
[7]
  AUC(0-t) at 24 h: 919 ng·h/mL
U-87 MG [8]
  Activity: 25.5%
U-87 MG [9]
  viability at 2 µM: 34.7%
U-87 MG [10]
  Activity: 4.51%
[11]
  inhibition: Dose-Dependent Effect
[12]
  Kp at 24 h: 0.76
[13]
  AUC(0-inf): 921 ng·h/mL
[14]
  half-life: 69.6 min
[15]
  clearance: 4.33 mL/min/kg
[16]
  IC50: > 100000 nM
U-87 MG [17]
  IC50: 420 nM
U-87 MG [18]
  Activity: Active
[19]
  Tmax: 1.98 min
U-87 MG [20]
  Activity: 35.4%
U-87MG ATCC [21]
  Activity: Active
U-87 MG [22]
  MST: 34 days
U-87 MG [23]
  viability at 0.5 µM: 44.6%
[24]
  AUC at 24 h: 20300 ng·h/mL
U-87MG ATCC [25]
  Activity: Dose-Dependent Effect
[26]
  AUC(0-t) at 24 h: 1930 ng·h/mL
U-87 MG [27]
  IC50: 890 nM
U-87 MG [28]
  Activity: 30.6%
U-87MG ATCC [29]
  Activity: Active
U-87 MG [30]
  viability at 1 µM: 35.5%
[31]
  Activity: Active
[32]
  IC50: > 100000 nM
U-87MG ATCC [33]
  Activity: Active
[34]
  IC50: > 40000 nM
U-87 MG [35]
  Activity: Dose-Dependent Effect
U-87 MG [36]
  IC50: 470 nM
[37]
  Tmax: 45 min
U-87 MG [38]
  Activity: 2.84%
U-87 MG [39]
  IC50: 1260 nM
[40]
  IC50: 65.1 nM
[41]
  half-life: 124 min
[42]
  bioavailability: 4.75%
U-87 MG [43]
  Activity: Active
U-87 MG [44]
  MST: 25.5 days
U-87MG ATCC [45]
  Activity: inactive
U-87 MG [46]
  IC50: 320 nM
U-87MG ATCC [47]
  Activity: Active
[48]
  Cmax: 4070 ng/mL
[49]
  AUC(0-inf): 1940 ng·h/mL
U-87 MG [50]
  MST: 30.5 days
U-87 MG [51]
  IC50: 770 nM
[52]
  Activity: Non-Toxic
[53]
  IC50: > 100000 nM
[54]
  IC50: 49.2 nM
[55]
  IC50: 8950 nM
U-87MG ATCC [56]
  Activity: Active
